# Measurements from US20090192227A1, “N-Acetylcysteine Compositions and Methods for Treating Acute Exacerbations of Inflammatory Lung Disease” (priority 2005, published 2009).
# “Also recorded” adds a separate entry of the source.
# Key:
# interleukin-17 (IL-17) = assay: Phase 2 trial: plasma levels of interleukin-17 (IL-17); assay type: in vivo, human; details: NAC group compared to placebo group, P=0.02
# From the text: During week 0 through week12, exacerbations of sinus/lung disease affected 9/18 subjects. Subjects were less prone to exacerbations in the NAC than in the placebo group (2/9 vs. 7/9, respectively, P=0.04, Fisher's exact test). A key molecular correlate of exacerbations, namely plasma levels of the cytokine interleukin-17 (IL-17) also was decreased in the NAC group compared to the placebo-group (P=0.02), further confirming the anti-inflammatory effect of NAC in CF and corroborating its positive effect on acute attacks. IL-17 recently has been identified as a potent T-cell derived modulator of acute neutrophilic lung inflammation [Linden, A., et al. Neutrophils, interleukin-17A and lung disease. Eur. Respir. J. 25:159-172 (2008)]
# [1] = administered intravenously in dogs; cited from earlier work
# [2] = 600 mg three times daily plus prednisone plus azothioprine, one year, vs standard therapy alone; cited from earlier work
# [3] = more stable than cysteine; cited from earlier work
# [4] = 600 mg oral NAC per day, at least two exacerbations per year for 2 years; cited from earlier work
# blood neutrophils = assay: Phase I trial: absolute numbers of neutrophils in blood; assay type: in vivo, human; details: dose cohort 2 (2.4 g/d), 4 weeks
# From the text: Indeed, cohort 2 was more severely affected with regards to several surrogate markers of disease prior to treatment (lower FEV1, all infected with P. aeruginosa, lower perceived weight gain).
# interleukin-8 (IL-8) = assay: Phase I trial: sputum interleukin-8 (IL-8) by ELISA; assay type: in vivo, human; details: 3 patients excluded (N = 15), 4 weeks
# From the text: 2. Lung inflammation, as reflected chiefly by (i) sputum counts in total live leukocytes and neutrophils (along with % neutrophils in sputum); (iii) plasma/sputum levels of elastase and interleukin-8 (IL-8) measured by spectrophotometry and ELISA Differences between basal and post-NAC values were studied by matched pair analysis, first, without distinguishing dose cohorts, to detect drug effects, and second, with dose cohorts as a factor, in order to detect potential dose effects.
# [5] = systematic review of randomized controlled trials; cited from earlier work
# [6] = Phase 2 trial: exacerbations of sinus/lung disease, week 0 through week 12; assay type: in vivo, human; details: NAC group, placebo 7/9, P=0.04
# From the text: (§1) Summary. Based on the success of the phase I trial, the trial proceeded to phase II. This single-center trial consisted of a 12-week placebo-controlled section followed by a 12-week open label section, with oral NAC 0.9 g, taken three times daily. The statistical plan for the study was designed to assess the safety and efficacy of NAC versus placebo, at 0 week and 12-week timepoints (placebo-controlled section). Of the 24 subjects screened for eligibility, 21 were enrolled and randomized into NAC and placebo groups. One subject asked to be withdrawn from the prior to the 6 week time point because the medication regimen was too onerous. […] Two other subjects also were removed from participation in the study by the principal investigator due to poor adherence to the study protocol. […] Thus, 18 subjects are included in this intent-to-treat (ITT) analysis (9 on NAC and 9 on placebo).
# During week 0 through week12, exacerbations of sinus/lung disease affected 9/18 subjects. Subjects were less prone to exacerbations in the NAC than in the placebo group (2/9 vs. 7/9, respectively, P=0.04, Fisher's exact test). […]
# sputum neutrophils = assay: Phase 2 trial: sputum neutrophil count (live neutrophils by microscopy); assay type: in vivo, human
# From the text: as §1
# (§2) Intention-to-treat analysis of efficacy endpoints. Besides the necessary assessment of the safety of high-dose oral NAC in a placebo-controlled setting, this phase 2 trial also was designed to gain a better understanding of treatment efficacy with regards to improving inflammation, redox imbalance and lung function in CF, albeit within the limits inherent to a small study. In particular, the study looked to confirm the positive effects of high-dose oral NAC seen on sputum neutrophil count and HNE activity obtained in phase 1. The primary efficacy endpoint in this phase 2 study is sputum neutrophil count (based on the quantification of live neutrophils by microscopy, reflecting lung inflammation) and the four secondary efficacy endpoints are: (i) FEV1 (% Pred), reflecting lung function; (ii) blood neutrophil GSH, reflecting systemic redox imbalance; (iii) sputum HNE activity, reflecting lung inflammation, the current best predictor of CF lung disease; and (iv) whole blood GSH, reflecting systemic redox imbalance. […]
# [7] = Phase 2 trial: FEV1 (% Pred), lung function; assay type: in vivo, human
# From the text: as §1
# Intention-to-treat analysis of efficacy endpoints. Besides the necessary assessment of the safety of high-dose oral NAC in a placebo-controlled setting, this phase 2 trial also was designed to gain a better understanding of treatment efficacy with regards to improving inflammation, redox imbalance and lung function in CF, albeit within the limits inherent to a small study. In particular, the study looked to confirm the positive effects of high-dose oral NAC seen on sputum neutrophil count and HNE activity obtained in phase 1. The primary efficacy endpoint in this phase 2 study is sputum neutrophil count (based on the quantification of live neutrophils by microscopy, reflecting lung inflammation) and the four secondary efficacy endpoints are: (i) FEV1 (% Pred), reflecting lung function; (ii) blood neutrophil GSH, reflecting systemic redox imbalance; (iii) sputum HNE activity, reflecting lung inflammation, the current best predictor of CF lung disease; and (iv) whole blood GSH, reflecting systemic redox imbalance. Data on all other main efficacy endpoints (along with sputum HNE and IL-8 protein levels as additional indicators of inflammation) is presented in Table 3 (below) for all 9 subjects of the NAC group and 9 subjects in the placebo group included in the ITT analysis.
# [8] = Phase I trial: perceived weight gain by CF QOL questionnaire; assay type: in vivo, human; details: 4 weeks
# From the text: (§3) With regards to efficacy, very significant positive effects of the treatment were documented. These positive effects (Table 2) included amelioration of: 1—Whole blood GSH (+11%, P=0.03), as measured by HPLC and blood neutrophil GSH (+17%, P=0.03), as measured by flow cytometry; 2—Live sputum leukocyte (−21%, P=0.03) and neutrophil (−25%, P=0.02) counts, as measured by microscopy and sputum elastase activity (−44%, P=0.02), as measured by kinetic spectrophotometry; and 3—Perceived weight gain (P=0.01), as measured by the CF QOL
# Any sizeable change in lung function will likely require longer treatment and larger group size, which we look forward to implementing in the placebo-controlled phase of the study.
# [9] = system: human neutrophil elastase (HNE); assay: Phase 2 trial: sputum HNE enzymatic activity; assay type: in vivo
# From the text: as §1
# as §2, with “In particular, the study looked to confirm the positive effects of high-dose oral NAC seen on sputum neutrophil count and HNE activity obtained in phase 1.” left out
# (§4) These various markers of inflammation were measured independently with different methodologies (e.g., microscopy, kinetic spectrophotometry, enzyme-linked immunosorbent assay), the results of which further strengthen the significance of these positive outcomes. […]
# blood neutrophil GSH = assay: Phase 2 trial: blood neutrophil intracellular GSH; assay type: in vivo, human; details: NAC group (n=9), ITT
# From the text: Summary. Based on the success of the phase I trial, the trial proceeded to phase II. This single-center trial consisted of a 12-week placebo-controlled section followed by a 12-week open label section, with oral NAC 0.9 g, taken three times daily. The statistical plan for the study was designed to assess the safety and efficacy of NAC versus placebo, at 0 week and 12-week timepoints (placebo-controlled section). Of the 24 subjects screened for eligibility, 21 were enrolled and randomized into NAC and placebo groups. One subject asked to be withdrawn from the prior to the 6 week time point because the medication regimen was too onerous. […] Two other subjects also were removed from participation in the study by the principal investigator due to poor adherence to the study protocol. […]
# Intention-to-treat analysis of efficacy endpoints. […] The primary efficacy endpoint in this phase 2 study is sputum neutrophil count (based on the quantification of live neutrophils by microscopy, reflecting lung inflammation) and the four secondary efficacy endpoints are: (i) FEV1 (% Pred), reflecting lung function; (ii) blood neutrophil GSH, reflecting systemic redox imbalance; (iii) sputum HNE activity, reflecting lung inflammation, the current best predictor of CF lung disease; and (iv) whole blood GSH, reflecting systemic redox imbalance. […]
# elastase = assay: Phase I trial: sputum elastase activity by kinetic spectrophotometry; assay type: in vivo, human; details: 4 weeks
# From the text: as §3
# (§5) 2. Lung inflammation, as reflected chiefly by (i) sputum counts in total live leukocytes and neutrophils (along with % neutrophils in sputum); (iii) plasma/sputum levels of elastase and interleukin-8 (IL-8) measured by spectrophotometry and ELISA
# (§6) Differences between basal and post-NAC values were studied by matched pair analysis, first, without distinguishing dose cohorts, to detect drug effects, and second, with dose cohorts as a factor, in order to detect potential dose effects.
# [10] = system: human neutrophil elastase (HNE); assay: Phase 2 trial: sputum HNE protein levels; assay type: in vivo
# From the text: as §1
# as §2, with “In particular, the study looked to confirm the positive effects of high-dose oral NAC seen on sputum neutrophil count and HNE activity obtained in phase 1.” left out
# as §4
# interleukin-8 = assay: Phase 2 trial: sputum IL-8 protein levels; assay type: in vivo, human
# From the text: as §1
# as §2, with “In particular, the study looked to confirm the positive effects of high-dose oral NAC seen on sputum neutrophil count and HNE activity obtained in phase 1.” left out
# as §4
# [11] = Phase I trial: lung function by spirometry; assay type: in vivo, human; details: short-term treatment (4 weeks)
# From the text: 3. Lung function, as measured by spirometry. Differences between basal and post-NAC values were studied by matched pair analysis, first, without distinguishing dose cohorts, to detect drug effects, and second, with dose cohorts as a factor, in order to detect potential dose effects. […] Any sizeable change in lung function will likely require longer treatment and larger group size, which we look forward to implementing in the placebo-controlled phase of the study.
# [12] = system: sputum leukocytes and neutrophils; assay: Phase I trial: sputum counts of live leukocytes and neutrophils by microscopy; assay type: in vivo, human; details: 4 weeks
# From the text: as §3, §5, §6
# [13] = Phase 2 placebo-controlled CF trial: safety, adverse events, adherence, CF QOL; assay type: in vivo, human
# From the text: Summary. […] This single-center trial consisted of a 12-week placebo-controlled section followed by a 12-week open label section, with oral NAC 0.9 g, taken three times daily. The statistical plan for the study was designed to assess the safety and efficacy of NAC versus placebo, at 0 week and 12-week timepoints (placebo-controlled section).
# Serious adverse events and adverse events. […] As used herein, the term “DIOS”, which stands for “Distal Intestinal Obstruction Syndrome” refers to a condition unique to CF that occurs due to the accumulation of viscous mucous and fecal material in the terminal ileum, caecum and ascending colon, which may cause progressive symptoms of recurrent colicky abdominal pain, bloating, nausea and anorexia, and signs of small intestinal obstruction.
# [14] = doses less than NAC; effects counter to those reported for NAC; cited from earlier work
# [15] = NAC group (n=9), ITT, oral 0.9 g three times daily, week 12
# [16] = NAC group (n=9), ITT, week 0 baseline
# [17] = phase 2, wk 0 vs wk 12, not in placebo group
# [18] = All (N = 18), basal vs post-NAC
compound,measurement,setting,value
"CC(=O)N[C@@H](CS)C(=O)O [NAC, N-acetylcysteine]",Plasma levels of IL-17,interleukin-17 (IL-17),decreased
same,Pulmonary oxygen toxicity and ischemic and reperfusion damage,[1],protect
same,Deterioration of vital capacity and DLCO in IPF,[2],slows the deterioration
same,Stability relative to cysteine,[3],about 10 times
same,Prevention of deterioration in lung function and exacerbations in COPD,[4],ineffective
same,Decrease in absolute numbers of neutrophils in blood,blood neutrophils,27%
same,"IL-8 in sputum, change",interleukin-8 (IL-8),−25%
same,Early mortality in ARDS and ALI,[5],no effect
same,Subjects with exacerbations of sinus/lung disease,[6],2/9
same,"Sputum neutrophil count (Log10), Value wk 12",sputum neutrophils; [15],1.24 ± 0.18 Log10
same,"Sputum neutrophil count (Log10), Value wk 0",sputum neutrophils; [16],1.41 ± 0.17 Log10
same,"Sputum neutrophil count, change within NAC group","sputum neutrophils; phase 2, wk 0 vs wk 12, 0.9 g three times daily, not in placebo group",significant decreases; also recorded: significantly decreased
same,Decline in pulmonary function tests (PFTs),[7]; ITT analysis over the course of the phase 2 trial,no significant decline
same,"Functional expiratory volume in 1s (% Pred), Value wk 12",[7]; [15],75.6 ± 8.2 % Pred
same,"Functional expiratory volume in 1s (% Pred), Value wk 0",[7]; [16],73.7 ± 7.6 % Pred
same,"FEV1 (% Pred), effect","[7]; phase 2, 12 weeks",No significant effect; also recorded: failed to detect any significant improvement
same,"Perceived weight gain, change",[8]; 3 patients excluded (N = 15),Increased
same,"Perceived weight gain, change","[8]; All (N = 18), CF QOL",Increased
same,"Sputum HNE enzymatic activity (Log10), Value wk 12",[9]; [15],3.16 ± 0.20 Log10
same,"Sputum HNE enzymatic activity (Log10), Value wk 0",[9]; [16],3.61 ± 0.15 Log10
same,"Sputum HNE enzymatic activity, change within NAC group",[9]; [17],significant decreases; also recorded: significantly decreased
same,"Blood neutrophil intracellular GSH, Value wk 12","blood neutrophil GSH; oral 0.9 g three times daily, week 12",4.10 ± 0.10
same,"Blood neutrophil intracellular GSH, Value wk 0",blood neutrophil GSH; week 0 baseline,4.04 ± 0.08
same,"Elastase in sputum, change",elastase; 3 patients excluded (N = 15),−46%
same,"Elastase in sputum, change",elastase; [18],−44%
same,"Sputum HNE protein levels (Log10), Value wk 12",[10]; [15],−0.27 ± 0.12 Log10
same,"Sputum HNE protein levels (Log10), Value wk 0",[10]; [16],0.04 ± 0.13 Log10
same,"Sputum HNE protein levels, change within NAC group",[10]; [17],significant decreases; also recorded: significantly decreased
same,"Sputum IL-8 protein levels (Log10), Value wk 12",interleukin-8; [15],1.81 ± 0.18 Log10
same,"Sputum IL-8 protein levels (Log10), Value wk 0",interleukin-8; [16],2.01 ± 0.12 Log10
same,"Sputum IL-8 protein levels, change within NAC group",interleukin-8; [17],significant decreases; also recorded: significantly decreased
same,Pulmonary Function Testing results (spirometry),[11],not changed; also recorded: none of the parameters measured by spirometry showed any change
same,"Live sputum leukocytes, change",[12]; 3 patients excluded (N = 15),−28%
same,"Live sputum neutrophils, change",[12]; 3 patients excluded (N = 15),−32%
same,"Neutrophils sputum (%), change",[12]; 3 patients excluded (N = 15),−9%
same,"Live sputum leukocytes, change",[12]; [18],−21%
same,"Live sputum neutrophils, change",[12]; [18],−25%
same,Complete blood count and chemistry parameters,"[13]; 12-week treatment, marginal changes in red blood cell distribution width and calcium, within normal range",not affected
same,Flatulence (CF QOL questionnaires),"[13]; NAC group, not in the placebo group, 12 weeks",significant reduction
same,Liver enzymes,"[13]; phase 2, 12 weeks",No change
same,Tolerability,"[13]; phase 2, oral 0.9 g three times daily, 12 weeks",very well tolerated; also recorded: lack of toxicity
"CC(=O)N[C@@H](CSSC[C@H](NC(C)=O)C(=O)O)C(=O)O [oxidized form of NAC, di-N-acetylcysteine]",Bioactive dose relative to NAC,[14],10-100 fold
